In data set [1] the test system is bortezomib-refractory disease. Conditions: cited from earlier work.
Data set [2] relates to MM refractory to either 4 or 5 drugs (quad- and penta-refractory). Nature of the data set: phase 2 STORM study Part 1. It counts as in vivo, human. The settings on record: Selinexor 80 mg in combination with dexamethasone 20 mg, 2 dosing schedules; quad- and penta-refractory MM patients. Here is the method:
Selinexor 80 mg in combination with dexamethasone 20 mg administered using 2 dosing schedules was studied in patients with MM refractory to either 4 or 5 drugs (quad- and penta-refractory) in Part 1 of the phase 2 STORM (Selinexor Treatment Of Refractory Myeloma) study. Median overall response rate (ORR) was 21% in this heterogeneous population. Based on these findings, the activity of selinexor 80 mg administered twice-weekly was examined in a more uniform population in the pivotal STORM Part 2 study.

Data set [3] relates to penta-exposed, triple-class refractory MM. Nature of the data set: pivotal STORM Part 2 study. It is filed as in vivo. The text has this: Eligible patients had measurable MM by International Myeloma Working Group (IMWG) criteria (See, Durie B G, Harousseau J L, Miguel J S, et al. International uniform response criteria for multiple myeloma. Leukemia 2006;20:1467-73. Rajkumar S V, Harousseau J L, Durie B, et al. Consensus recommendations for the uniform reporting of clinical trials: report of the International Myeloma Workshop Consensus Panel. Blood 2011;117:4691-5); prior treatment with bortezomib, carfilzomib, lenalidomide, pomalidomide, daratumumab, glucocorticoids, and an alkylating agent; and had disease refractory to at least 1 IMiD (lenalidomide and pomalidomide), 1 PI (bortezomib or carfilzomib), daratumumab, glucocorticoids and to their last regimen. Refractory disease was defined as progression during or within 60 days after completion of therapy, or <25% response to therapy.19, 20 Eastern Cooperative Oncology Group performance status of 0-2, adequate hepatic function, renal function, and hematopoietic function were required. Systemic light chain amyloidosis, active central nervous system involvement, grade≥3 peripheral or grade≥2 painful neuropathy were exclusion criteria.
Oral selinexor 80 mg in combination with dexamethasone 20 mg was administered on days 1 and 3, weekly, in 4-week cycles until disease progression, death or discontinuation. A dose modification protocol was used for adverse event (AE) management. All patients were required to receive ondansetron 8 mg (or equivalent) prior to the first dose of study drug and 2-3 times daily as needed. Other antiemetics (olanzapine, NK-1R antagonists) were permitted for patients intolerant to or with persistent nausea. Supportive measures were provided at the discretion of the investigator and may have included intravenous fluids, hematopoietic growth factors, transfusions, and/or appetite stimulants (olanzapine, megesterol acetate).
The primary endpoint was Overall Response Rate (ORR) adjudicated by the appointed Independent Review Committee (IRC). Secondary endpoints included duration of response (DOR), clinical benefit rate (CBR), progression-free survival (PFS) and OS (Overall Survival). Disease-specific assessments were conducted at baseline, day 1 of each treatment cycle, and at the time of disease progression or suspected response. High-risk cytogenetics included del(17p), t(4;14), t(14;16), and gain(1q) chromosomal abnormalities by fluorescent in situ hybridization (FISH). Quality of life was assessed using the Functional Assessment of Cancer Therapy-Multiple Myeloma (FACT-MM) patient-reported outcome questionnaire. Safety and tolerability were assessed through history, physical exam, laboratory assessments and 12-lead electrocardiogram. Adverse events (AEs) were graded according to the NCI CTCAE v4.03.
The sample size was based on assumptions for penta-exposed, triple-class-refractory MM using a minimal threshold for ORR of 10%. For the primary efficacy analysis, a sample size of 122 patients allowed for a one-sided test at α=0.025 to detect an ORR of ≥20% against the threshold ORR of 10% with 90% power. The modified intention-to-treat (mITT) population was used for the primary efficacy analysis, comprised of all enrolled patients who met all eligibility criteria or received a waiver from the Sponsor to enroll in the trial and received at least 1 dose of selinexor plus dexamethasone. The safety population included all patients who received at least 1 dose of study drug. The primary analysis used a 2-sided, exact 95% confidence interval, calculated for the ORR among the mITT population, with statistical significance declared if the lower bound of this interval was >10%. […] Summary statistics for continuous variables minimally included: n (number), mean, standard deviation (SD), minimum, median, and maximum. For categorical variables, frequencies and percentages are presented. For time-to-event variables, the Kaplan-Meier method was used for descriptive summaries.

Another data set concerns quad-refractory myeloma. Conditions: pivotal phase 2 study; cited from earlier work.
Another data set has as its system refractory MM. The settings on record: expansion cohort (n=15) of the phase 1 monotherapy study; cited from earlier work.
The mark [4] stands for this setting: selinexor 80 mg + dexamethasone 20 mg twice weekly.
The mark [5] stands for this setting: selinexor 80 mg + dexamethasone 20 mg twice weekly, % of mITT patients.
[6] abbreviates: selinexor 80 mg + dexamethasone 20 mg twice weekly, % of patients.

Consider `CC(C)C[C@H](NC(=O)[C@H](CCc1ccccc1)NC(=O)CN1CCOCC1)C(=O)N[C@@H](Cc1ccccc1)C(=O)N[C@@H](CC(C)C)C(=O)[C@@]1(C)CO1` [carfilzomib], for which the ORR in data set [1] is 18.9%.

Consider `O=C(/C=C\n1cnc(-c2cc(C(F)(F)F)cc(C(F)(F)F)c2)n1)NNc1cnccn1` [selinexor, Selinexor], for which the “Overall response rate (ORR)” value in data set [2] was 21%. Also, in data set [3] (most common reasons for discontinuation), the “discontinuation because of AEs (unrelated and related)” value was 32.5%. Further, in data set [3] (oral selinexor 80 mg + dexamethasone 20 mg, days 1 and 3 weekly, mITT population (122 patients), IRC adjudicated), the “Overall response rate (ORR)” value was 26.2%. Besides, in data set [3] (setting [4]), the “CBR (≥minimal response), clinical benefit rate” value is given as 39.3%; the “OS (Overall Survival)” value worked out at 8.6 months; the “PFS (progression-free survival)” value is 3.7 months; the “median DOR (duration of response)” value was 4.4 months. In data set [3] (setting [5]), the partial responses was found to be 19.7%, the stringent complete responses was determined as 1.6% and the “very good partial responses” value is reported as 4.9%. For the same compound, in data set [3] (setting [6]), the Minimal response is reported as 13.1%, the “progressive disease or disease not evaluable” value turned out to be 21.3% and the stable disease turned out to be 39.3%. For the same compound, the “response of patients with relapse after CAR-T” value in data set [3] (selinexor 80 mg + dexamethasone 20 mg twice weekly, both (2) patients with prior CAR-T therapy) is on record as “partial response”. In addition, in data set [3] (selinexor 80 mg + dexamethasone 20 mg twice weekly, range 1-14 weeks), the “Median time to partial response or better” value came out at 4.1 weeks. In data set [3] (selinexor 80 mg + dexamethasone 20 mg twice weekly, responder subgroup), the “median OS in patients who achieved a partial or minimal response or better” value came to 15.6 months. In addition, the efficacy across subgroups entry in data set [3] (subgroups including patients with high-risk cytogenetics (53% of the patients)) is “consistent across subgroups”.

Regarding daratumumab, the ORR in the data set with quad-refractory myeloma is 21.2%; in the data set with refractory MM, 36%.

Values taken from patent US20220178927A1, “BIOMARKERS FOR SELINEXOR” (Karyopharm Therapeutics Inc., priority 2019, published 2022).
